Eight molecules from ChEMBL document CHEMBL1201862, “PubChem BioAssay data set” (2004) can be followed below.

SMILES strings stand for the structures.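 A five-concentration, 48-hour dose response in 96-well plates underlies each endpoint, interpolated linearly between surrounding concentrations. GI50 is the concentration that inhibits growth by half.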 Active and inactive are the calls of the source. No stated cut-off is given here; in the data, active = GI50 up to about 1.1 µM and inactive = higher.

Among the test systems are RXF 393; A498; UACC-62; HL-60; SW-620; UACC-257; LOX IMVI; SN12C; OVCAR-4; SK-OV-3; HOP-62; A549; KM12; Malme-3M; HT-29; HOP-92; ACHN.
Common to all, as to test: NCI-60 cell line screen, 48 h

`Cc1c[n+]2c3ccccc3c3ccccc3c2s1.[O-][Cl+3]([O-])([O-])[O-]`: the GI50 is 0.043 µM (active) in the assay with RXF 393; 55.6 µM (inactive) in the assay with A498; 14.1 µM (inactive) in the assay with UACC-62; 14.2 µM (inactive) in the assay with HL-60; 5.4 µM (inactive) with SW-620; 4.26 µM (inactive) with UACC-257. In addition, the GI50 in the assay with LOX IMVI is 15.2 µM (inactive); in the assay on SN12C, 2.61 µM (inactive); in the assay on OVCAR-4, 8.73 µM (inactive); in the assay on SK-OV-3, 10.7 µM (inactive); in the assay with HOP-62, 6.52 µM (inactive); in the assay with A549, 4.01 µM (inactive). For the same molecule, the GI50 in the assay with KM12 is 1.07 µM (active); in the assay on Malme-3M, 2.49 µM (inactive); with HT-29, 14.1 µM (inactive); with HOP-92 it was 16.6 µM (inactive); with ACHN it was 42.6 µM (inactive).
`CCOC(=O)NN1C(=O)C(=P(c2ccccc2)(c2ccccc2)c2ccccc2)C(C(=O)OC)=C1C`: the GI50 in the assay on RXF 393, with A498, in the assay with UACC-62, with HL-60, in the assay with SW-620 and in the assay with UACC-257 was > 100 µM (inactive) each time. Also, the GI50 in the assay with LOX IMVI, with SN12C, in the assay with OVCAR-4, in the assay on SK-OV-3, with HOP-62 and with A549 was > 100 µM (inactive) in each case. In addition, the GI50 in the assay on KM12, in the assay with Malme-3M, in the assay with HT-29, with HOP-92 and in the assay on ACHN was > 100 µM (inactive) each time.
As to `CCCCCCCCCCOC(=O)c1cc[n+](C)cc1`, the GI50 with RXF 393 is 19.7 µM (inactive); in the assay with A498 it was 15.6 µM (inactive); with UACC-62, 16.8 µM (inactive); in the assay on HL-60, 17.8 µM (inactive); with SW-620, 19.1 µM (inactive); in the assay on UACC-257 it was 19.8 µM (inactive). The GI50 in the assay on LOX IMVI was 17.6 µM (inactive); in the assay with SN12C, 16.9 µM (inactive); with OVCAR-4, 18.1 µM (inactive); in the assay with SK-OV-3, 16 µM (inactive); with HOP-62 it was 16.8 µM (inactive); with A549, 17 µM (inactive). The GI50 with KM12 was 16.9 µM (inactive); with Malme-3M it was 17.1 µM (inactive); in the assay on HT-29, 16.7 µM (inactive); with HOP-92, 15.8 µM (inactive); in the assay on ACHN, 18.6 µM (inactive).
As for `NCc1cccc(O)c1O`, the GI50 was > 100 µM (inactive) with RXF 393; > 100 µM (inactive) in the assay with A498; > 100 µM (inactive) with UACC-62; 38.7 µM (inactive) in the assay with HL-60; > 100 µM (inactive) in the assay on SW-620; > 100 µM (inactive) with UACC-257. The GI50 in the assay on LOX IMVI, in the assay with SN12C, in the assay on OVCAR-4, in the assay on SK-OV-3, in the assay on HOP-62 and in the assay with A549 was > 100 µM (inactive) each time. Also, the GI50 in the assay on KM12, with Malme-3M, with HT-29, in the assay with HOP-92 and with ACHN was > 100 µM (inactive) throughout.
Consider `O=c1c2cc(Br)ccc2nc(CNc2ccccc2)n1-c1ccccc1`, for which the GI50 in the assay on RXF 393 is 15.7 µM (inactive); in the assay on A498 it was 34.6 µM (inactive); in the assay on UACC-62, 8.51 µM (inactive); in the assay with HL-60, 16.8 µM (inactive); with SW-620, 12.7 µM (inactive); in the assay with UACC-257, 23.2 µM (inactive). Moreover, the GI50 in the assay with LOX IMVI is 7.5 µM (inactive); in the assay on SN12C, 14.1 µM (inactive); in the assay with OVCAR-4 it was 6.38 µM (inactive); in the assay on SK-OV-3, 36.2 µM (inactive); with HOP-62, 30.9 µM (inactive); with A549, 21.7 µM (inactive). In addition, the GI50 with KM12 was 26.7 µM (inactive); with Malme-3M, 14.8 µM (inactive); in the assay with HT-29 it was 16.7 µM (inactive); in the assay on HOP-92 it was 19.1 µM (inactive); with ACHN, 18.7 µM (inactive).
Turning to `CC(=O)OC1COC(n2c(=S)n(-c3ccccc3)c(=O)c3cc(Br)ccc32)C(OC(C)=O)C1OC(C)=O` (stereo unspecified), the GI50 in the assay with RXF 393 was 22.2 µM (inactive); in the assay with A498, 49.4 µM (inactive); with UACC-62 it was 37.3 µM (inactive); in the assay with HL-60, > 100 µM (inactive); with SW-620 it was > 100 µM (inactive); with UACC-257 it was 55.2 µM (inactive). The GI50 in the assay on LOX IMVI is 57.1 µM (inactive); with SN12C it was 71.1 µM (inactive); in the assay with OVCAR-4, 7.5 µM (inactive); with SK-OV-3 it was 32.8 µM (inactive); in the assay with HOP-62, 19.5 µM (inactive); in the assay with A549, 40.4 µM (inactive). Moreover, the GI50 with KM12 is > 100 µM (inactive); in the assay on Malme-3M it was 35.4 µM (inactive); with HT-29, 72.1 µM (inactive); with HOP-92 it was 19.5 µM (inactive); with ACHN, > 100 µM (inactive).
Take `CCCCN(CCCC)C(=O)C(=O)CC(=O)/C=C/c1ccccc1`: the GI50 in the assay with RXF 393, in the assay with A498, with UACC-62, with HL-60, with SW-620 and in the assay with UACC-257 was > 100 µM (inactive) each time. In addition, the GI50 with LOX IMVI, in the assay with SN12C, with OVCAR-4, in the assay on SK-OV-3, in the assay with HOP-62 and in the assay on A549 was > 100 µM (inactive) each time. The GI50 in the assay on KM12, in the assay with Malme-3M, in the assay on HT-29, in the assay with HOP-92 and with ACHN was > 100 µM (inactive) each time.
`C[C@]12CCC3c4ccc(OC(=O)c5ccccc5)cc4CC[C@H]3C1CC[C@@H]2OC(=O)C12OC1CCC2=O` (stereo partly specified): the GI50 in the assay on RXF 393 was 2.41 µM (inactive); in the assay on A498 it was 6.04 µM (inactive); in the assay with UACC-62, 15.6 µM (inactive); with HL-60, 1.9 µM (inactive); in the assay on SW-620, 2.64 µM (inactive); in the assay with UACC-257, 5.81 µM (inactive). The GI50 in the assay with LOX IMVI is 3.33 µM (inactive); with SN12C it was 5.9 µM (inactive); with OVCAR-4 it was 5.41 µM (inactive); in the assay on SK-OV-3 it was 15.8 µM (inactive); in the assay with HOP-62, 6.21 µM (inactive); in the assay on A549, 5.64 µM (inactive). The GI50 in the assay on KM12 was 6.93 µM (inactive); with Malme-3M, 5.85 µM (inactive); in the assay on HT-29, 3.34 µM (inactive); in the assay with HOP-92 it was 19.7 µM (inactive); with ACHN, 5.27 µM (inactive).
